Source: patent US20130330422A1, “METHODS FOR INCREASING INSULIN SENSITIVITY AND TREATING DIABETES WITH A BIOACTIVE CHROMIUM BINDING PEPTIDE” (The Board of Trustees of the University of Alabama, priority 2012, published 2013)
Non-standard residues stand in square brackets, D forms with d. No end group written: not given here. pGlu = O=C1CC[C@@H](C(=O)O)N1

Assays:
[1] = test system: cultured myotubes; assay: Insulin-stimulated 2-[3H]-deoxyglucose uptake in cultured myotubes; type: cell-based; details: peptide 10 mM and/or chromium 1 h, insulin 50 nM 10 min; 10 mM or 25 mM glucose overnight
Method: Myotubes were incubated with the peptide (10 mM) and/or chromium for 1 h and stimulated with insulin (50 nM) for 10 min, and 2-[^3H]-deoxyglucose uptake was assessed. Data represent mean counts per minute (cpm)/mg protein/30 min±SE (n=3). *p<0.01 compared to basal low glucose conditions. **p<0.01 compared to insulin-stimulated low glucose conditions. ***p<0.001 compared to high glucose conditions.

[2] = Insulin-stimulated glucose uptake in vivo, tail-vein peptide then intraperitoneal glucose; details: peptide 5 μmol/kg alone or premixed with equimolar chromium via tail-vein; glucose 2 g/kg intraperitoneally
Method: The peptide (5 μmol/kg) either alone or premixed with equimolar concentrations of chromium were injected via tail-vein, immediately following which glucose (2 g/kg body weight) was administered intraperitoneally (*p<0.05, n=6-8).

[3] = test system: Akt; assay: Insulin-stimulated phosphorylation of Akt in cultured myotubes (Western blot); type: cell-based; details: peptide and/or chromium (1 μM) 1 h, insulin 5 nm
Method: Myotubes were incubated with the peptide and/or chromium (1 μM) for 1 h and stimulated with insulin 5 nm. (A) Representative Western blots of p^308-Akt and Akt, and (B) Densitometric quantitation of the Western blots. Data represent mean±SE (n=3), *p<0.001 versus control **p<0.01 compared to insulin-stimulated glucose uptake (panel A). *p<0.001 versus control ^#p<0.05 compared to insulin-stimulated glucose uptake in untreated cells (panel B).

[4] = Chromium binding studies: ultrafiltration equilibrium dialysis with 51CrCl3, Langmuir isotherms and Hill plots; details: for Langmuir parameter Bt / Langmuir parameter K: Cr^3+ binding, 0.1 mol/L Hepes pH 7.4, 4° C.; for Co-operativity / Kf (Hill plot binding of formation constant) / n (Hill constant): chromium(III) binding, Hill plot; for chromium:oligopeptide ratio at the intersection point of the Langmuir isotherm (number of tightly binding ions): estimated from Langmuir isotherm
Method: A variation of the equilibrium dialysis method using an ultrafiltration device was utilized to examine the binding of chromium to the synthetic peptides. Aliquots of a mixture of CrCl3 and ^51CrCl3 were combined to generate different concentrations of Cr(III) while maintaining the synthetic peptide in solution at a constant volume. Known amounts (approximately 0.46 μmol) of peptide and 200 mL of 0.1 mol/L Hepes buffer (pH 7.4) were slowly stirred in an Amicon 8400 ultrafiltration unit (with a YC05 membrane) at 4° C. temperature for at least 12 h to achieve equilibration. The ultrafiltration unit was then pressurized, and effluent was collected. The content of free chromic ion in the effluent was determined by gamma counting using a Packard Cobra II auto-gamma counter. Chromium binding experiments were performed in triplicate, and the synthetic peptide used in at least one of the three sets of triplicates was from a different synthesis. As a control for the chromium-binding experiments, the ultrafiltration procedure was performed without peptide to establish the amount of chromium that adhered to the ultrafiltration unit; all experiments were corrected for this background. Linear regression analyses of the Langmuir isotherms and Hill plots were performed using SigmaPlot 11.0. The Cr concentration of solutions of isolated peptides were determined by graphite furnace atomic absorption spectroscopy using a PerkinElmer Analyst 400 atomic absorption spectrometer equipped with an HGA-900 graphite furnace and an AS-800 autosampler using a chromium hollow cathode lamp operating at 10 mA; a spectral bandwidth of 0.8 nm was selected to isolate the light at 353.7 nm. Chromium standard solution obtained from Perkin Elmer (Waltham, Mass.) was utilized to generate a standard curve.
Errors are presented throughout as standard deviations of the triplicate analyses. Doubly deionized H2O was used throughout. Amino acid analyses of samples were performed by the Protein and Separation Analysis Laboratory at Purdue University. Protein concentrations were determined by the fluorescamine method (Davis et al. “Isolation and characterization of a biologically active form of chromium oligopeptide from bovine liver,” Arch Biochem Biophys. 1997; 339:335-343.) Fluorescence measurements were obtained on a Jobin Yvon FluoroMax-3 fluorescence spectrophotometer. Ultraviolet-visible spectra were obtained using a Hewlett-Packard 8451A or a Beckman Coulter DU 800 spectrophotometer.
As chromium binding to the oligopeptide LMWCr is believed to be through only carboxylate residues and the heptapeptide pEEEEGDD (SEQ ID NO: 1) retains all the aspartate and glutamate residues in LMWCr, whether the heptapeptide can bind chromium in a similar fashion to LMWCr was investigated. The binding of chromium to bovine apoLMWCr prepared by the low pH EDTA method (Davis and Vincent), the heptapeptide pEEEEGDD (SEQ ID NO: 1), and two other acidic peptides was probed. […] The number of Cr^3+ ions binding to the peptides was estimated using Langmuir isotherms. For the Langmuir isotherms of Cr^3+ binding to all the synthetic peptides, Cr binding to apoLMWCr can be represented by two intersecting straight lines with different slopes (FIG. 5)). […] Negative values of the Langmuir parameters Bt and K were found for each peptide: apoLMWCr, −2.69 mmol/g and −109 L/mmol, respectively; EDGEECDCGE (SEQ ID NO: 41), −6.97 mmol/g and −354 L/mmol; DGEECDCGEE (SEQ ID NO: 42), −62.9 mmol/g and −9.94 L/mmol; and pEEEEGDD (SEQ ID NO: 1), −0.73 mmol/g and −151 L/mmol.
To further compare the binding properties between the synthetic peptides and apoLMWCr in CrCl3 solution, the method of Hill was applied to establish the degree of cooperativity between the covalent binding sites with the initial low amounts of substrate in solution, assuming covalent binding sites are occupied before surface adsorption occurs. The total number of tight binding sites established using the Langmuir isotherm was utilized. […]

[5] = Cr:peptide binding ratio after exposure to 10 equivalents of Cr^3+ and G-10 size exclusion chromatography; details: 0.1 mol/L hepes pH 7.4, overnight at 4° C., G-10 separation
Excerpt: The intersection points in the isotherms allow the number of tightly binding ions to be estimated. For bovine apoLMWCr, the chromium:oligopeptide ratio at the intersection point is 3.6, which is very close to the average amount of chromium bound to isolated bovine LMWCr, which is 3.5. Titration of bovine LMWCr with Cr^3+ has previously shown that four Cr^3+ ions are required to restore bioactivity. For the synthetic peptides, the intersection points occurred at Cr:peptide ratios of approximately 2, 2, and 4 for EDGEECDCGE (SEQ ID NO: 41), DGEECDCGEE (SEQ ID NO: 42) and pEEEEGDD (SEQ ID NO: 1) (FIG. 6), respectively. This is consistent with the Crpeptides binding ratios found after exposing the peptides to solutions of 10 equivalents of Cr^3+ (CrCl3.6H2O in 0.1 mol/L hepes buffer, pH 7.4 overnight at 4° C.) and separating the peptides from the excess Cr^3+ by G-10 size exclusion chromatography (EDGEECDCGE (SEQ ID NO: 41): 2.0(±0.3), and DGEECDCGEE (SEQ ID NO: 42): 2.0±0.3). A change in mode from specific coordinate covalent binding to just electrostatic absorption on the peptide surface is proposed. Thus, the inflection point of the isotherm for the peptide pEEEEGDD (SEQ ID NO: 1) implies that it tightly binds four Cr^3+ ions. […] The two visible features are readily assigned to d→d transitions from the Cr^3+ centers. […]

Substance: EEEEGDD
- insulin-stimulated glucose uptake in cultured myotubes [1]: augments insulin-stimulated glucose uptake
- insulin-stimulated glucose uptake in vivo [2]: augments insulin-stimulated glucose uptake in vivo
- insulin-stimulated phosphorylation of Akt (p308-Akt) [3]: improves insulin-stimulated phosphorylation of Akt

Substance: [pGlu]EEEGDD
- Langmuir parameter Bt [4]: -0.73 mmol/g
- Langmuir parameter K [4]: -151 L/mmol
- Co-operativity [4]: Positively co-operative
- Kf (Hill plot binding of formation constant) [4]: 1.92 × 10^20 (mol/L)^−4
- n (Hill constant) [4]: 3.82
- chromium:oligopeptide ratio at the intersection point of the Langmuir isotherm (number of tightly binding ions) [4]: ~4

Substance: EDGEECDCGE [synthetic acidic peptide with the same amino acid composition as bovine LMWCr]
- Cr:peptide binding ratio [5]: 2.0(±0.3)
- Langmuir parameter Bt [4]: -6.97 mmol/g
- Langmuir parameter K [4]: -354 L/mmol
- Co-operativity [4]: Positively co-operative
- Kf (Hill plot binding of formation constant) [4]: 1.48 × 10^23 (mol/L)^−2
- n (Hill constant) [4]: 3.64
- chromium:oligopeptide ratio at the intersection point of the Langmuir isotherm (number of tightly binding ions) [4]: approximately 2

Substance: DGEECDCGEE [synthetic acidic peptide with the same amino acid composition as bovine LMWCr]
- Cr:peptide binding ratio [5]: 2.0±0.3
- Langmuir parameter Bt [4]: -62.9 mmol/g
- Langmuir parameter K [4]: -9.94 L/mmol
- Co-operativity [4]: Positively co-operative
- Kf (Hill plot binding of formation constant) [4]: 1.01 × 10^11 (mol/L)^−2
- n (Hill constant) [4]: 1.85
- chromium:oligopeptide ratio at the intersection point of the Langmuir isotherm (number of tightly binding ions) [4]: approximately 2
